Laboratory results: patent publication US4767765A, “N-substituted-N-[3-(1,2,4-triazolo-[4,3-b]pyridazin-6-yl )phenyl]alkanamides, carbamates and ureas” (American Cyanamid Company, priority 1987, dated 1988)

Assays:
[1] = tested on: Nonconditioned Passive Avoidance in Rats; test: Nonconditioned passive avoidance test in rats (conflict procedure); assay type: in vivo, rat (Wistar); design: key: Active: considered active if the number of shocks received by the test group is significantly higher than the control group by the Mann-Witney U test; conditions: oral or i.p., 30 or 60 minutes
Procedure: Another test which has been used to assess anti-anxiety effects is a non-conditioned passive avoidance procedure described by J. R. Vogel, B. Beer and D. E. Clody, "A Simple and Reliable Conflict Procedure for Testing Anti-anxiety Agents", Psychopharmacologia, 21, 1-7 (1971). A conflict situation is induced in rats by a modification of this method.
Groups of 6 naive, Wistar strain rats, weighing 200-240 g each were deprived of water for 48 hours and food for 24 hours. The test compounds were administered in single or graded, oral or intraperitoneal doses, suspended in a 2% starch vehicle containing 0.5% v/v polyethylene glycol and one drop of polysorbate 80. Control animals received the vehicle alone. At 30 or 60 minutes each rat was placed in an individual plexiglass chamber. Water was available ad libitum from a tap located in the rear of the chamber. A 0.7 milliampere DC shocking current was established between the stainless steel grid floor and the tap. After 20 licks of non-shocked drinking, a shock was delivered for 2 seconds and then further shocks were delivered on a ratio of one shock for 2 seconds for every 20 licks. This was continued for a total of 3 minutes. The number of shocks taken by each rat during the 3 minute interval was recorded and compared to a control group. […]

[2] = tested on: Brain-Specific Receptors of Rats; test: Inhibition of the binding of 3H-benzodiazepine to brain-specific receptors of rats; design: species or system rat (Wistar); conditions: 3H-diazepam 1.5 nM or 3H-flunitrazepam 1.0 nM; rat cortex P2 fraction, pH 7.4, 30 minutes in ice; test concentration not given
[3] = tested on: Clonic Seizures Caused by Pentylenetetrazole in Rats; test: Protection against clonic seizures caused by pentylenetetrazole in rats; assay type: in vivo; conditions: Rattus norvegicus, oral or i.p., pentylenetetrazole 23 mg/kg i.v. at 30 or 60 minutes, read-out: % of Rats Protected
Procedure: The antianxiety and anticonvulsant properties of the novel compounds of the present invention were established in a test which indicates both anxiolytic and antiepileptic activity by the measure of protection from convulsions resulting from the administration of pentylenetetrazole. Single or graded dose levels of the test compounds were administered orally or intraperitoneally in a 2% starch vehicle, containing 0.5% v/v polyethylene glycol and one drop of Polysorbate 80 to groups of at least 4 rats. At 30 or 60 minutes, the rats were treated intravenously with pentylenetetrazole at a dose of 23 mg/kg of body wieght. This dose is estimated to cause clonic seizures in 99% of unprotected rats. It has been reported [R. T. Hill and D. H. Tedeschi, "Animal Testing and Screening Procedures in Evaluating Psychotropic Drugs" in An Introduction to Psychopharmacology, Eds. R. R. Rech and K. E. Moore, Raven Press, New York, pp 237-288 (1971,] that there is a high degree of correlation between antagonism of pentylenetetrazole seizures in rats and antianxiety and anticonvulsant effects in higher warm-blooded animals. The results of this test on representative compounds of this invention are shown in Table I.

CCN(C(=O)OC)c1cccc(-c2ccc3nncn3n2)c1 [Ethyl[3-(1,2,4-triazolo[4,3-b]pyridazin-6-yl)phenyl]carbamic acid, methyl ester]
Results (nonconditioned passive avoidance) ([1]; dose 25 mg/kg): Active | % Inhibition [2]: 78% | responders at 25 mg/kg [3]: 100%

CCN(C(=O)OC)c1cccc(-c2ccc3nnc(C)n3n2)c1 [Ethyl[3-(3-methyl-1,2,4-triazolo[4,3-b]pyridazin-6-yl)phenyl]carbamic acid, methyl ester]
Results (nonconditioned passive avoidance) ([1]; dose 1.5 mg/kg): Active | % Inhibition [2]: 60% | responders at 3.1 mg/kg [3]: 75%

COC(=O)N(C)c1cccc(-c2ccc3nncn3n2)c1 [Methyl-[3-(1,2,4-triazolo[4,3-b]pyridazin 6-yl)phenyl]carbamic acid, methyl ester]
% Inhibition [2]: 62% | responders at 25 mg/kg [3]: 25%

COC(=O)N(C)c1cccc(-c2ccc3nnc(C)n3n2)c1 [Methyl[3-(3-methyl-1,2,4-triazolo[4,3-b]pyridazin-6-yl)phenyl]carbamic acid, methyl ester]
Results (nonconditioned passive avoidance) ([1]; dose 3.1 mg/kg): Active | % Inhibition [2]: 62% | responders at 25 mg/kg [3]: 100%

Cc1nnc2ccc(-c3cccc(N(C)C(=O)N(C)C)c3)nn12 [N,N,N'-Trimethyl-N'-[3-(3-methyl-1,2,4-triazolo[4,3-b]pyridazin-6-yl)phenyl]urea]
Results (nonconditioned passive avoidance) ([1]; dose 25 mg/kg): Active | responders at 25 mg/kg [3]: 50%

Cc1nnc2ccc(-c3cccc(NC(=O)N(C)C)c3)nn12 [N,N-Dimethyl-N'-[3-(3-methyl-1,2,4-triazolo[4,3-b]pyridazin-6-yl)phenyl]urea]
% Inhibition [2]: 10%

C=CCN(C(C)=O)c1cccc(-c2ccc3nncn3n2)c1 [N-2-Propenyl-N-[3-(1,2,4-triazolo[4,3-b]pyridazin-6-yl)phenyl]acetamide]
% Inhibition [2]: 68%

C#CCN(C(C)=O)c1cccc(-c2ccc3nncn3n2)c1 [N-2-Propynyl-N-[3-(1,2,4-triazolo[4,3-b]pyridazin-6-yl)phenyl]acetamide]
% Inhibition [2]: 49%

CC(=O)N(CC1CC1)c1cccc(-c2ccc3nnc(C)n3n2)c1 [N-(Cyclopropylmethyl)-N-[3-(3-methyl-1,2,4-triazolo[4,3-b]pyridazin-6-yl)phenyl]acetamide]
Results (nonconditioned passive avoidance) ([1]; dose 6.2 mg/kg): Active | % Inhibition [2]: 93% | responders at 12.5 mg/kg [3]: 75%

CCN(C(=O)N(C)C)c1cccc(-c2ccc3nnc(C)n3n2)c1 [N-Ethyl-N',N'-dimethyl-N-[(3-methyl-1,2,4-triazolo[4,3-b]pyridazin-6-yl)phenyl]urea]
Results (nonconditioned passive avoidance) ([1]; dose 3.1 mg/kg): Active | responders at 12.5 mg/kg [3]: 75%

CCN(C(C)=O)c1cccc(-c2ccc3nncn3n2)c1 [N-Ethyl-N-[3-(1,2,4-triazolo[4,3-b]pyridazin-6-yl)phenyl]acetamide]
Results (nonconditioned passive avoidance) ([1]; dose 12.5 mg/kg): Active | % Inhibition [2]: 78% | responders at 25 mg/kg [3]: 100%

CCC(=O)N(CC)c1cccc(-c2ccc3nncn3n2)c1 [N-Ethyl-N-[3-(1,2,4-triazolo[4,3-b]pyridazin-6-yl)phenyl]propanamide]
Results (nonconditioned passive avoidance) ([1]; dose 3.1 mg/kg): Active | % Inhibition [2]: 84% | responders at 3.1 mg/kg [3]: 50%

CCN(C(C)=O)c1cccc(-c2ccc3nnc(N)n3n2)c1 [N-Ethyl-N-[3-(3-amino-1,2,4-triazolo[4,3-b]pyridazin-6-yl)phenyl]acetamide]
% Inhibition [2]: 90%

CCN(C(C)=O)c1cccc(-c2ccc3nnc(C)n3n2)c1 [N-Ethyl-N-[3-(3-methyl-1,2,4-triazolo[4,3-b]pyridazin-6-yl)phenyl]acetamide]
Results (nonconditioned passive avoidance) ([1]; dose 0.8 mg/kg): Active | % Inhibition [2]: 90% | responders at 12.5 mg/kg [3]: 100%

CCC(=O)N(CC)c1cccc(-c2ccc3nnc(C)n3n2)c1 [N-Ethyl-N-[3-(3-methyl-1,2,4-triazolo[4,3-b]pyridazin-6-yl)phenyl]propanamide]
Results (nonconditioned passive avoidance) ([1]; dose 3.1 mg/kg): Active | % Inhibition [2]: 95% | responders at 3.1 mg/kg [3]: 75%

CC(=O)N(C)c1cccc(-c2ccc3nncn3n2)c1 [N-Methyl-N-[3-(1,2,4-triazolo[4,3-b]pyridazin-6-yl)phenyl]acetamide]
Results (nonconditioned passive avoidance) ([1]; dose 12.5 mg/kg): Active | % Inhibition [2]: 45% | responders at 25 mg/kg [3]: 50%

CCC(=O)N(C)c1cccc(-c2ccc3nncn3n2)c1 [N-Methyl-N-[3-(1,2,4-triazolo[4,3-b]pyridazin-6-yl)phenyl]propanamide]
Results (nonconditioned passive avoidance) ([1]; dose 25 mg/kg): Active | % Inhibition [2]: 56% | responders at 25 mg/kg [3]: 100%

CC(=O)N(C)c1cccc(-c2ccc3nnc(N)n3n2)c1 [N-Methyl-N-[3-(3-amino-1,2,4-triazolo[4,3-b]pyridazin-6-yl)phenyl]acetamide]
% Inhibition [2]: 58%

CC(=O)N(C)c1cccc(-c2ccc3nnc(C)n3n2)c1 [N-Methyl-N-[3-(3-methyl-1,2,4-triazolo[4,3-b]pyridazin-6-yl)phenyl]acetamid]
Results (nonconditioned passive avoidance) ([1]; dose 3.1 mg/kg): Active | % Inhibition [2]: 89% | responders at 6 mg/kg ([3]; dose 6.0 mg/kg): 100%

CCC(=O)N(C)c1cccc(-c2ccc3nnc(C)n3n2)c1 [N-Methyl-N-[3-(3-methyl-1,2,4-triazolo[4,3-b]pyridazin-6-yl)phenyl]propanamide]
Results (nonconditioned passive avoidance) ([1]; dose 3.1 mg/kg): Active | % Inhibition [2]: 89% | responders at 12.5 mg/kg [3]: 25%

C=CCN(C(C)=O)c1cccc(-c2ccc3nnc(C)n3n2)c1 [N-[3-(3-Methyl-1,2,4-triazolo[4,3-b]pyridazin-6-yl)phenyl]-N-2-propenylacetamide]
Results (nonconditioned passive avoidance) ([1]; dose 25 mg/kg): Active | % Inhibition [2]: 96% | responders at 6.25 mg/kg ([3]; dose 6.25 mg/kg): 100%

CCCN(C(C)=O)c1cccc(-c2ccc3nnc(C)n3n2)c1 [N-[3-(3-Methyl-1,2,4-triazolo[4,3-b]pyridazin-6-yl)phenyl]-N-propylacetamide]
% Inhibition [2]: 93%

CCC(=O)Nc1cccc(-c2ccc3nnc(C)n3n2)c1 [N-[3-(3-Methyl-1,2,4-triazolo[4,3-b]pyridazin-6-yl)phenyl]propanamide]
% Inhibition [2]: 56%

C#CCN(C(C)=O)c1cccc(-c2ccc3nnc(C)n3n2)c1 [N-[3-(3-Methyl-1,2,4-triazolo[4,3b]pyridazin-6-yl)phenyl]-N-2-propynylacetamide]
Results (nonconditioned passive avoidance) ([1]; dose 1.5 mg/kg): Active | % Inhibition [2]: 90% | responders at 3.1 mg/kg [3]: 100%

COC(=O)Nc1cccc(-c2ccc3nncn3n2)c1 [[3-(1,2,4-Triazolo[4,3-b]pyridazin-6-yl)phenyl]carbamic acid, methyl ester]
% Inhibition [2]: 18%

COC(=O)Nc1cccc(-c2ccc3nnc(C)n3n2)c1 [[3-(3-Methyl-1,2,4-triazolo[4,3-b]pyridazin-6-yl)phenyl]carbamic acid, methyl ester]
Results (nonconditioned passive avoidance) ([1]; dose 25 mg/kg): Active | % Inhibition [2]: 18%
